Measured values published in US20260256792A1, “TREATMENT OF CHRONIC SPONTANEOUS URTICARIA BY ADMINISTERING (R)-2-[3-[4-AMINO-3-(2-FLUORO-4-PHENOXY-PHENYL)PYRAZOLO[3,4-D]PYRIMIDIN-1-YL]PIPERIDINE-1-CARBONYL]-4-METHYL-4-[4-(OXETAN-3-YL)PIPERAZIN-1-YL]PENT-2-ENENITRILE” (priority 2023, published 2026).

Tested on: moderate-to-severe chronic spontaneous urticaria (CSU)
Assay: Phase 2 CSU study: itch severity score over 7 days (ISS7)
Type: in vivo, human
From the text: The study comprises a 12 week, randomized, double-blind, placebo-controlled, multi-center, dose-ranging efficacy and safety phase, followed by a 40 week open label extension (OLE) phase (see FIG. 1). The study consists of three phases and an optional OLE phase. […] Clinically, CSU is characterized by the spontaneous and recurrent appearance of pruritic hives. The proposed primary endpoints were the UAS7 at Week 12 in EU and EU reference countries and the ISS7 in the US. Regardless of where a participant was from, all assessments were the same. The UAS7 score is a composite score containing both the HSS7 and the ISS7. This allowed a global assessment of the two key components of urticaria: hives and itch. […] The UAS is a validated PRO measure. […] The daily UAS scores range from 0 to 6 point/day. […] Patients were to complete the UAS using the e-diary. […] The following secondary endpoints were to be analyzed using the same approach as for the primary endpoint: • Change from baseline in UAS7 at Week 4 • Change from baseline in UAS7 at Week 12 (for US and US reference countries) • Change from baseline in ISS7 at Week 12 (except US and US reference countries) • Change from baseline in HSS7 at Week 12

[1] = Week 4, 400 mg TID, Prior Omalizumab Use
[2] = Week 5, 400 mg BID, Omalizumab-Naïve
[3] = Week 5, 400 mg BID, Prior Omalizumab Use
[4] = Week 5, 400 mg QPM, Omalizumab-Naïve
[5] = Week 5, 400 mg QPM, Prior Omalizumab Use
[6] = Week 5, 400 mg TID, Omalizumab-Naïve
[7] = Week 5, 400 mg TID, Prior Omalizumab Use
[8] = Week 6, 400 mg BID, Omalizumab-Naïve
[9] = Week 6, 400 mg BID, Prior Omalizumab Use
[10] = Week 6, 400 mg QPM, Omalizumab-Naïve
[11] = Week 6, 400 mg QPM, Prior Omalizumab Use
[12] = Week 6, 400 mg TID, Omalizumab-Naïve
[13] = Week 6, 400 mg TID, Prior Omalizumab Use
[14] = Week 7, 400 mg BID, Omalizumab-Naïve
[15] = Week 7, 400 mg BID, Prior Omalizumab Use
[16] = Week 7, 400 mg QPM, Omalizumab-Naïve
[17] = Week 7, 400 mg QPM, Prior Omalizumab Use

CC(C)(C=C(C#N)C(=O)N1CCC[C@@H](n2nc(-c3ccc(Oc4ccccc4)cc3F)c3c(N)ncnc32)C1)N1CCN(C2COC2)CC1 [rilzabrutinib, (R)-2-[3-[4-amino-3-(2-fluoro-4-phenoxy-phenyl)pyrazolo[3,4-d]pyrimidin-1-yl]piperidine-1-carbonyl]-4-methyl-4-[4-(oxetan-3-yl)piperazin-1-yl]pent-2-enenitrile]
ISS7 Mean (SD) [1]: 6.17 (6.41)
ISS7 Median [1]: 5.42
ISS7 Percent change from baseline Mean (SD) [1]: −61.65 (32.63) %
ISS7 Percent change from baseline Median [1]: −62.50%
ISS7 Change from baseline Mean (SD) [2]: −6.55 (6.17)
ISS7 Change from baseline Median [2]: −6.42
ISS7 Mean (SD) [2]: 8.88 (6.81)
ISS7 Median [2]: 8.50
ISS7 Percent change from baseline Mean (SD) [2]: −43.73 (41.21) %
ISS7 Percent change from baseline Median [2]: −39.85%
ISS7 Change from baseline Median [3]: −14.50
ISS7 Mean (SD) [3]: 5.50 (8.54)
ISS7 Median [3]: 2.00
ISS7 Percent change from baseline Mean (SD) [3]: −68.33 (47.26) %
ISS7 Percent change from baseline Median [3]: −86.67%
ISS7 Change from baseline Mean (SD) [4]: −5.53 (4.98)
ISS7 Change from baseline Median [4]: −4.10
ISS7 Mean (SD) [4]: 11.00 (4.68)
ISS7 Percent change from baseline Mean (SD) [4]: −31.93 (26.18) %
ISS7 Percent change from baseline Median [4]: −30.00%
ISS7 Change from baseline Mean (SD) [5]: −10.00 (NC)
ISS7 Change from baseline Median [5]: −10.00
ISS7 Mean (SD) [5]: 11.00 (NC)
ISS7 Percent change from baseline Mean (SD) [5]: −47.62 (NC) %
ISS7 Percent change from baseline Median [5]: −47.62%
ISS7 Change from baseline Mean (SD) [6]: −9.18 (6.46)
ISS7 Change from baseline Median [6]: −9.00
ISS7 Mean (SD) [6]: 6.92 (5.87)
ISS7 Median [6]: 7.00
ISS7 Percent change from baseline Mean (SD) [6]: −55.68 (34.88) %
ISS7 Percent change from baseline Median [6]: −56.25%
ISS7 Mean (SD) [7]: 5.50 (6.53)
ISS7 Median [7]: 3.00
ISS7 Percent change from baseline Mean (SD) [7]: −66.60 (31.51) %
ISS7 Percent change from baseline Median [7]: −72.43%
ISS7 Change from baseline Mean (SD) [8]: −6.58 (5.90)
ISS7 Change from baseline Median [8]: −5.75
ISS7 Mean (SD) [8]: 8.85 (6.40)
ISS7 Percent change from baseline Mean (SD) [8]: −42.90 (39.02) %
ISS7 Percent change from baseline Median [8]: −33.40%
ISS7 Change from baseline Mean (SD) [9]: −10.13 (9.42)
ISS7 Change from baseline Median [9]: −14.00
ISS7 Mean (SD) [9]: 7.07 (8.32)
ISS7 Median [9]: 2.33
ISS7 Percent change from baseline Mean (SD) [9]: −56.44 (51.68) %
ISS7 Change from baseline Mean (SD) [10]: −6.59 (5.45)
ISS7 Change from baseline Median [10]: −5.00
ISS7 Mean (SD) [10]: 10.27 (5.26)
ISS7 Percent change from baseline Mean (SD) [10]: −38.20 (29.52) %
ISS7 Percent change from baseline Median [10]: −31.67%
ISS7 Change from baseline Mean (SD) [11]: −12.00 (NC)
ISS7 Change from baseline Median [11]: −12.00
ISS7 Mean (SD) [11]: 9.00 (NC)
ISS7 Median [11]: 9.00
ISS7 Percent change from baseline Mean (SD) [11]: −57.14 (NC) %
ISS7 Percent change from baseline Median [11]: −57.14%
ISS7 Change from baseline Mean (SD) [12]: −8.71 (6.32)
ISS7 Change from baseline Median [12]: −7.50
ISS7 Mean (SD) [12]: 7.32 (6.05)
ISS7 Median [12]: 7.00
ISS7 Percent change from baseline Mean (SD) [12]: −53.59 (35.59) %
ISS7 Percent change from baseline Median [12]: −50.00%
ISS7 Change from baseline Mean (SD) [13]: −12.83 (7.49)
ISS7 Change from baseline Median [13]: −14.50
ISS7 Mean (SD) [13]: 4.17 (6.88)
ISS7 Median [13]: 2.00
ISS7 Percent change from baseline Mean (SD) [13]: −75.50 (33.00) %
ISS7 Percent change from baseline Median [13]: −88.10%
ISS7 Change from baseline Mean (SD) [14]: −7.28 (5.95)
ISS7 Change from baseline Median [14]: −8.08
ISS7 Mean (SD) [14]: 8.21 (6.16)
ISS7 Median [14]: 7.00
ISS7 Percent change from baseline Mean (SD) [14]: −46.93 (37.51) %
ISS7 Percent change from baseline Median [14]: −56.35%
ISS7 Change from baseline Mean (SD) [15]: −10.40 (9.91)
ISS7 Change from baseline Median [15]: −13.00
ISS7 Mean (SD) [15]: 6.80 (8.56)
ISS7 Median [15]: 2.00
ISS7 Percent change from baseline Mean (SD) [15]: −57.33 (52.62) %
ISS7 Percent change from baseline Median [15]: −86.67%
ISS7 Change from baseline Mean (SD) [16]: −6.11 (5.15)
ISS7 Change from baseline Median [16]: −5.20
ISS7 Mean (SD) [16]: 10.68 (5.34)
ISS7 Percent change from baseline Mean (SD) [16]: −36.22 (29.09) %
ISS7 Percent change from baseline Median [16]: −37.78%
ISS7 Change from baseline Mean (SD) [17]: −13.00 (NC)
ISS7 Change from baseline Median [17]: −13.00
ISS7 Mean (SD) [17]: 8.00 (NC)
ISS7 Median [17]: 8.00
ISS7 Percent change from baseline Mean (SD) [17]: −61.90 (NC) %
ISS7 Percent change from baseline Median [17]: −61.90%
